Assays:
Format in all cases: biochemical
Conditions in all cases: ADP-Glo SIK kinase assay
SIK2 = molecular target: T1, SIK2 (Homo sapiens, UniProt Q9H0K1); experiment: ADP-Glo kinase assay, SIK2
T1 construct: purchased ThermoFisher Scientific PV4792
Method in brief: (§1)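 Enzyme–substrate mix was started with ATP and incubated 120 min at RT. ADP formed was quantified by ADP-Glo: 40 min ATP depletion, then 30 min detection reagent converting ADP to ATP for luciferase luminescence, which rises with kinase activity. Controls: 1% DMSO and 10 μM staurosporine (final).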

SIK1 = molecular target: T2, SIK1 (Homo sapiens, UniProt P57059); experiment: ADP-Glo kinase assay, SIK1
T2 construct: purchased Carna Biosciences 02-131
T2 sequence (P57059 whole entry): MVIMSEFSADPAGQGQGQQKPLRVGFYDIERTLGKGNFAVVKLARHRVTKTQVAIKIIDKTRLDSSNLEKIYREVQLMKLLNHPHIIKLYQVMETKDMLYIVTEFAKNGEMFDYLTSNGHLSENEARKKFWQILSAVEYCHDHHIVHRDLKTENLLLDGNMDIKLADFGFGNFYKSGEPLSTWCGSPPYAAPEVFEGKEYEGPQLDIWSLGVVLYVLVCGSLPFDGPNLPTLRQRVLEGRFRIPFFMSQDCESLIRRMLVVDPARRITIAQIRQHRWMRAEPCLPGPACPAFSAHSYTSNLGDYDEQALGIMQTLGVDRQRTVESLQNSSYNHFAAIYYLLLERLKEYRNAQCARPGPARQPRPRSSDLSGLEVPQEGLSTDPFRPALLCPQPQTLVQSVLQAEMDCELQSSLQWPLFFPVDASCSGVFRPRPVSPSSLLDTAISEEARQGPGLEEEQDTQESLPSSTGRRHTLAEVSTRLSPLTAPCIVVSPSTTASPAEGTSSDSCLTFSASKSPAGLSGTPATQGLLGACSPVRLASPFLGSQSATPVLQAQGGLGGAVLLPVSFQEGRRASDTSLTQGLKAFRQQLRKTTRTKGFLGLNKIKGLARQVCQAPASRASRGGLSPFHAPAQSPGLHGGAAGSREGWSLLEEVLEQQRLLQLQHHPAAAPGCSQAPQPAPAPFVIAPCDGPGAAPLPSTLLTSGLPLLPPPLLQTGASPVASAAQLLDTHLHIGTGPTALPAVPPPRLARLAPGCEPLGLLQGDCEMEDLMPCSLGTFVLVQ
Method in brief: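 ADP-Glo, RT throughout. Enz/substrate + ATP, 120 min; ADP-Glo reagent 40 min (ATP depletion); detection reagent 30 min; luminescence read. Neg ctrl 1% DMSO, pos ctrl 10 μM staurosporine, final concs.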

SIK3 = molecular target: T3, SIK3 (Homo sapiens, UniProt Q9Y2K2); experiment: ADP-Glo kinase assay, SIK3
T3 construct: purchased SignalChem S12-11G-100
T3 sequence (Q9Y2K2 whole entry): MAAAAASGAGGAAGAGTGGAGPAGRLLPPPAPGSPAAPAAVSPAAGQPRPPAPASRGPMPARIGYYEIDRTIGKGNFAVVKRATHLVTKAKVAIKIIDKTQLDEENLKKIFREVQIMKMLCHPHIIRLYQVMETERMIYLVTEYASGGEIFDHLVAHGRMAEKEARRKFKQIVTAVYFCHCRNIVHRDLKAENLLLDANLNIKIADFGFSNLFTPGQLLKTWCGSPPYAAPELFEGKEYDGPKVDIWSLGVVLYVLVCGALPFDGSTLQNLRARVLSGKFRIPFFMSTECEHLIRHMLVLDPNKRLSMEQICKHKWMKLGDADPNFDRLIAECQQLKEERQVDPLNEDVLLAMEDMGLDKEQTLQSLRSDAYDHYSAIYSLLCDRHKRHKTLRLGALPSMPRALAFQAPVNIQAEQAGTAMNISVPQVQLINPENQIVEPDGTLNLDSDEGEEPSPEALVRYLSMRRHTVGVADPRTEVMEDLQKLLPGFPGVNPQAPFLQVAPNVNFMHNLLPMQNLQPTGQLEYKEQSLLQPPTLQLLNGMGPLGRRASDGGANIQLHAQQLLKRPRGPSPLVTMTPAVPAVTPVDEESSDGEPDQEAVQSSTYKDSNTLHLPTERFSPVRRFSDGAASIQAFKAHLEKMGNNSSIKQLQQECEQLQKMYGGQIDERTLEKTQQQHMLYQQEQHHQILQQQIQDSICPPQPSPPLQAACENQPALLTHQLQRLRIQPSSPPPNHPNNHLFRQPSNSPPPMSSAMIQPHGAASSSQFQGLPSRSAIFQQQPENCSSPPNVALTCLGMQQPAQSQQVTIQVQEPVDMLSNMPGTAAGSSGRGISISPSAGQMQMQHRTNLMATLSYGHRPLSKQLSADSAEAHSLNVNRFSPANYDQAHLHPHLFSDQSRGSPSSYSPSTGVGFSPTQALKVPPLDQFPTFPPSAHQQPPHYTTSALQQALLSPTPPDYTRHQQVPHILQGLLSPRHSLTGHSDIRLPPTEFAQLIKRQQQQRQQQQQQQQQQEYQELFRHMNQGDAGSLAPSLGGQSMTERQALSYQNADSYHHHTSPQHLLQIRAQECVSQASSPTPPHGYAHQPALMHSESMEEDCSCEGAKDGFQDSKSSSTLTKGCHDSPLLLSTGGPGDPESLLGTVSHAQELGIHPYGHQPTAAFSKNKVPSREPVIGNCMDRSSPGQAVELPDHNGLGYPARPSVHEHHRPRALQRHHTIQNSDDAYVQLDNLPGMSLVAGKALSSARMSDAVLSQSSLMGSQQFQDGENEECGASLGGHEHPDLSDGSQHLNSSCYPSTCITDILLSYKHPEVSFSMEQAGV
Method in brief: as §1

T1 sequence (Q9H0K1 whole entry): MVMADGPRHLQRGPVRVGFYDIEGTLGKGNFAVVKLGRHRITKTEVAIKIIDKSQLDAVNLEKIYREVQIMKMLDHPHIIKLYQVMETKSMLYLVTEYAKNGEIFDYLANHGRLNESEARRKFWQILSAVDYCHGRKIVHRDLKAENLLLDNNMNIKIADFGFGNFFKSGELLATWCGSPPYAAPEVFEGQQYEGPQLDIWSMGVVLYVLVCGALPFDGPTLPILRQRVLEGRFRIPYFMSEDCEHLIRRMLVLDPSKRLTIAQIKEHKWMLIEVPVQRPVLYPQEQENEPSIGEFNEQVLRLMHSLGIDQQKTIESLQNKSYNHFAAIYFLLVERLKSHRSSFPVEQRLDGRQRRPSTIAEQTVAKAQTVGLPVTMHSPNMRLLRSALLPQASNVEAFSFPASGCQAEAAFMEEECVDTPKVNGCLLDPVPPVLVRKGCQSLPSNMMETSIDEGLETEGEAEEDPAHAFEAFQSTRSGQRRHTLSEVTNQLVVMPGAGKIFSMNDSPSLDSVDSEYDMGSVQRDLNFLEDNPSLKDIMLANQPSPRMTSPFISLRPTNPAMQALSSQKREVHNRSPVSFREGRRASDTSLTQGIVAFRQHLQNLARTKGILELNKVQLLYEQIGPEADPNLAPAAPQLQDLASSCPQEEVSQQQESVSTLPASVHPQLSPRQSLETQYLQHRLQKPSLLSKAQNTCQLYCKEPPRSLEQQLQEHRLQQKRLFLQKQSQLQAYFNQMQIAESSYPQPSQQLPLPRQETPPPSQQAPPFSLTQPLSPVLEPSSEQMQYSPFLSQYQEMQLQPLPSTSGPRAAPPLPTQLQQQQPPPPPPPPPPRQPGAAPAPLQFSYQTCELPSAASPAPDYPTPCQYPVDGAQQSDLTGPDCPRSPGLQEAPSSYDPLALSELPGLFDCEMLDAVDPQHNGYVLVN

COc1cc(-c2cnc3cc(OCCC#N)ccn23)cc(OC(F)F)c1C(=O)NC1CC1 [compound 31, 4-[7-(2-cyanoethoxy)imidazo[1,2-a]pyridin-3-yl]-N-cyclopropyl-2-(difluoromethoxy)-6-methoxy-benzamide]
IC50 (SIK2): > 500 nM | IC50 (SIK1): > 500 nM | IC50 (SIK3): > 500 nM

COc1cc(-c2cnc3cc(OCC4CCCN4C4COC4)ccn23)cc(OC(F)F)c1C(=O)NC1CC1 (stereo not drawn) [compound 289, N-cyclopropyl-2-(difluoromethoxy)-6-methoxy-4-[7-[[1-(oxetan-3-yl)pyrrolidin-2-yl]methoxy]imidazo[1,2-a]pyridin-3-yl]benzamide]
IC50 (SIK2): 10 to 100 nM | IC50 (SIK1): 10 to 100 nM | IC50 (SIK3): 0.01 to 10 nM

COc1cc(-c2cnc3cc(OCCCN4CC5(CC(O)C5)C4)ccn23)cc(OC(F)F)c1C(=O)NC1CC1 [compound 297, N-cyclopropyl-2-(difluoromethoxy)-4-[7-[3-(6-hydroxy-2-azaspiro[3.3]heptan-2-yl)propoxy]imidazo[1,2-a]pyridin-3-yl]-6-methoxy-benzamide]
IC50 (SIK2): 0.01 to 10 nM | IC50 (SIK1): 10 to 100 nM | IC50 (SIK3): 0.01 to 10 nM

COc1cc(-c2cnc3cc(OCCN4CCC(F)(F)C4)ccn23)cc(OC(F)F)c1C(=O)NC1CC1 [compound 180, N-cyclopropyl-2-(difluoromethoxy)-4-[7-[2-(3,3-difluoropyrrolidin-1-yl)ethoxy]imidazo[1,2-a]pyridin-3-yl]-6-methoxy-benzamide]
IC50 (SIK2): 0.01 to 10 nM | IC50 (SIK1): 10 to 100 nM | IC50 (SIK3): 0.01 to 10 nM

COc1cc(-c2cnc3cc(OCCN4CCOCC4C#N)ccn23)cc(OC(F)F)c1C(=O)NC1CC1 (stereo not drawn) [compound 178, 4-[7-[2-(3-cyanomorpholin-4-yl)ethoxy]imidazo[1,2-a]pyridin-3-yl]-N-cyclopropyl-2-(difluoromethoxy)-6-methoxy-benzamide]
IC50 (SIK2): 0.01 to 10 nM | IC50 (SIK1): 10 to 100 nM | IC50 (SIK3): 0.01 to 10 nM

COc1cc(-c2cnc3cc(OCC(O)CN4CC[C@@H](O)C4)ccn23)cc(OC(F)F)c1C(=O)NC1CC1 (stereo partly drawn) [compound 376, N-cyclopropyl-2-(difluoromethoxy)-4-[7-[2-hydroxy-3-[(3R)-3-hydroxypyrrolidin-1-yl]propoxy]imidazo[1,2-a]pyridin-3-yl]-6-methoxy-benzamide]
IC50 (SIK2): 0.01 to 10 nM | IC50 (SIK1): 10 to 100 nM | IC50 (SIK3): 0.01 to 10 nM

COc1cc(-c2cnc3cc(OCC(N)C4CCCO4)ccn23)cc(OC(F)F)c1C(=O)NC1CC1 (stereo not drawn) [compound 136, 4-[7-(2-amino-2-tetrahydrofuran-2-yl-ethoxy)imidazo[1,2-a]pyridin-3-yl]-N-cyclopropyl-2-(difluoromethoxy)-6-methoxy-benzamide]
IC50 (SIK2): 0.01 to 10 nM | IC50 (SIK1): 10 to 100 nM | IC50 (SIK3): 0.01 to 10 nM

COc1cc(-c2cnc3cc(OCc4cncn4C)ccn23)cc2c1C(=O)N(CC(F)(F)F)CC2 [compound 85, 8-methoxy-6-[7-[(3-methylimidazol-4-yl)methoxy]imidazo[1,2-a]pyridin-3-yl]-2-(2,2,2-trifluoroethyl)-3,4-dihydroisoquinolin-1-one]
IC50 (SIK2): 0.01 to 10 nM | IC50 (SIK1): > 500 nM | IC50 (SIK3): 0.01 to 10 nM

COc1cc(-c2cnc3cc(OC4CCN(C)CC4)ccn23)cc(OC(F)F)c1C(=O)NC1CC1 [compound 7, N-cyclopropyl-2-(difluoromethoxy)-6-methoxy-4-[7-[(1-methyl-4-piperidyl)oxy]imidazo[1,2-a]pyridin-3-yl]benzamide]
IC50 (SIK2): 10 to 100 nM | IC50 (SIK1): > 500 nM | IC50 (SIK3): 10 to 100 nM

COc1cc(-c2cnc3cc(OCCN4CCOCC4)ccn23)cc(C)c1C(=O)NC1CC1 [compound 222, N-cyclopropyl-2-methoxy-6-methyl-4-[7-(2-morpholinoethoxy)imidazo[1,2-a]pyridin-3-yl]benzamide]
IC50 (SIK2): 100 to 500 nM | IC50 (SIK1): > 500 nM | IC50 (SIK3): 10 to 100 nM
